One block for each compound: values may come before it.
Key:
MAC 15A cells = test: In vitro activity against MAC 15A adenocarcinoma (MTT assay); format: cell-based; settings: MAC15A colon adenocarcinoma, 96 hours continuous exposure
Description: MAC 15A cells were grown in RPMI 1640 medium supplemented with 10% foetal calf serum containing a 1% antibiotic mixture under standard tissue culture conditions and were maintained at 37° C. in a humidified atmosphere of 5% CO2 in air. Cells were harvested from a stock culture in exponential growth phase and plated in 96-well flat-bottomed plates to achieve a final density of 2×10^3 cells per well. After 2 hours incubation medium was replaced with either fresh medium containing 0.5% DMSO (control) or medium containing test compound dissolved in DMSO at a concentrations from 10 mM to 1 nM. Chemosensitivity was assessed using MTT assay by the method of Plumb et al Cancer Research 49 (1989) 4435-4440.
Following 96 hours continuous exposure to drug at 37° C. cells were incubated with fresh drug-free medium immediately prior to addition of MTT solution (5 mg/ml). Medium and MTT were removed after 4 hours and 150 μl of DMSO was added. For each plate the absorbance of the resulting solution was measured at the analytical wavelength 550 nm for formnazan product, using a Labsystem Mutiskan. IC50 values were obtained from growth curves of drug concentration against % survival and are expressed in μm.
In vitro Cytotoxicity of Spacer Limked Anthraquinone Peptide Conjugates on MAC15A Colon Adenocarcinoma

pBR322 DNA = test: DNA binding assay: fluorescence quenching, displacement of ethidium bromide and Hoechst dye 33258; settings: for QH50: concentration displacing 50% of Hoechst dye 33258 (groove binder) from DNA; for QE50: concentration displacing 50% of ethidium bromide (intercalator) from DNA
Source text: The present inventors have now determined that the introduction of appropriately positioned, conformationally restricted groups into the spacer group of spacer-linked anthraquinone-amino acid or peptide conjugates, allows control of the affinity and mode of binding to DNA. This affinity and mode of binding to DNA is readily determined by fluorescence quenching experiments in which the Q50 values for displacement of ethidium bromide, a DNA intercalator, and for Hoechst 33258 dye, a DNA minor-groove-binder, from which their fluorescent DNA-bound complexes are measured and expressed in μM units of drug concentration (see PCT/GB99/01901 incorporated herein by reference).
The propensity of selected compounds to bind to DNA in the absence of topos was measured in order to identify compounds that would bind weakly, or not at all. […] A […] was used determine binding constants of the compound to DNA by displacement of either ethidium bromide (an intercalator) or Hoechst dye 33258 (a groove binder) which form a DNA-bound fluorescent complex measured by fluorescence spectroscopy.
DNA Binding Assay Protocol
In order to detect the strength and mode of anthraquinone compound binding to DNA the displacement of known DNA binders was detected by measuring the fluorescence of a DNA/fluorescent compound complex. The addition of known concentrations of ethidium bromide, an interchelator, and Hoescht Dye, a groove binder, cause a fluorescent DNA/binder complex that can be detected and the fluorescence quantified. The addition of anthraquinone compounds displaces the interchelators or groove binders, depending on the compound mode of DNA binding, and therefore reduces the fluorescence accordingly. The preferred binding action of compounds can be quantified by determining the reduction in fluorescence resulting from a given concentration of compound. The quantification of a compounds ability to bind to DNA is expressed, as the concentration required to displace 50% of the ethidium bromide or Hocscht Dye, thus reducing the fluorescence by 50%. Therefore, the values produced are QE50 for ethidium, bromide, or QH50 for Hoescht Dye.
Compound: 300, 60, 10 and 10/6 µM (1.66 μM) solution concentrations were prepared for use in the assay to produce a range of compound. Concentrations. 100, 200 and 300 μl of each dilution were used in the assay reaction. This provides a range of concentrations: −30, 20, 10, 6, 4, 2, 1, 0.67, 0.33, 0.17, 0.11, 0.06, 0.00 μM in the assay environment. Intermediate concentrations can be utilised to enhance the accuracy of the displacement concentration determination.
Buffer: 100 mM Tris, NaCI 500 mM. […] Stock solution of 200 μM was prepared in 10× assay buffer. Dilution of DNA therefore provided the correct concentration of assay buffer in the assay cell. 300 μg DNA was used in 3 ml reaction mixture therefore 20 μM DNA concentration. Hoescht Dye 2 μM final concentration, therefore 100 μl of a 60 μM stock solution was added to a 3 ml assay. Ethidium Bromide 2 μM final concentration therefore 100 μl of a 60 μM stock solution was added to a 3 ml assay. Distilled H2O Water was added to produce 3 ml reaction volume. Order of addition: 1. DNA, 2. Water, 3. Drug, 4. Dye
The assay was completed with both Hoescht Dye and Ethidium. Bromide for each compound. The ethidium bromide is a DNA inter-chelator, Hoescht Dye is a minor groove binder. 100, 200 and 30 gμ of the lowest compound dilution was assayed. This procedure was repeated with all further dilution's. This provided a curve of fluorescence intensity decrease with increasing compound concentration. QE50 and QH50 values were determined by extrapolating the concentration of compound at the point where the fluorescence intensity was reduced by 50%. Controls involving compound only and ethidium. bromide or Hoechst Dye without compound were carried out for each experiment. […]

HL-60 Human Leukemia = test: In vitro cytotoxicity against HL-60 human leukemia; format: cell-based
Source text: In vitro Cytotoxicity of Spacer-Linked Anthraquinone-Peptide Conjugates Against HL-60 Human Leukemia

topo I [1] = target: T1, topo I (Homo sapiens, UniProt P11387); test: Inhibition of topoisomerase I mediated relaxation of pBR322 DNA; format: biochemical
T1 sequence (P11387 1-765): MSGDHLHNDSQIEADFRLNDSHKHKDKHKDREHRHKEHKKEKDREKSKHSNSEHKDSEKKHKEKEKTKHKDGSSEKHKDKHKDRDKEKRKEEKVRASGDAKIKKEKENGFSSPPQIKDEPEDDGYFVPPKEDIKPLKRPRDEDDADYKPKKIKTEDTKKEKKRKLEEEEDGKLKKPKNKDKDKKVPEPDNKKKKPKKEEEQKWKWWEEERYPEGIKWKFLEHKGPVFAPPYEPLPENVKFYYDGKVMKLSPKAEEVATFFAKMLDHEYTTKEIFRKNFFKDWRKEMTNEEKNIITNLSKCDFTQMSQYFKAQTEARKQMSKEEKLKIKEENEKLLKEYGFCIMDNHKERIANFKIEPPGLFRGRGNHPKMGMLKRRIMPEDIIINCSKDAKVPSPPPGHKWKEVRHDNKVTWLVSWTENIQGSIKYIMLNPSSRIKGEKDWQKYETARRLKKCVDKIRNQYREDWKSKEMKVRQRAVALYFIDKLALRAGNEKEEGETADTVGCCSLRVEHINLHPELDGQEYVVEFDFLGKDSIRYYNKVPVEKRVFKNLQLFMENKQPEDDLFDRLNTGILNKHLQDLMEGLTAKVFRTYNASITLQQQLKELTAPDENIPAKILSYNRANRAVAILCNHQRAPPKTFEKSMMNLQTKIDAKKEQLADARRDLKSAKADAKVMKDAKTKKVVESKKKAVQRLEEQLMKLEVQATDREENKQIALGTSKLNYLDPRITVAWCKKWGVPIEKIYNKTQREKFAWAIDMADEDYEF

topo I [2] = target: T1, topo I; test: Stimulation of topoisomerase I mediated cleavage of pBR322 DNA; format: biochemical; settings: for nicked plasmid DNA (topo I mediated cleavage): at 25 μM
Source text: To determine the effect of the newly synthesised compounds on the catalytic activity of topo I and II (α and β), specific tests measuring relaxation, decatenation and enzyme-mediated cleavage of DNA were employed using purified human topos.
Simulation of Topoisomerase I Mediated Cleavage of pBR322DNA by Spacer-Linked Anthraquinone-Peptide Conjugates

topo I [3] = target: T1, topo I; test: Immunoband depletion of topoisomerase I in HL-60 cells; format: cell-based; parameters: endogenous in cells; host or cells: HL-60 human leukemia cells
Description: Immunoband Depletion of Topoisomerase I
The data provides good evidence for ternary complex (drug-DNA-enzyme) formation in viable whole cells.
The method was adapted from Boege and Andersen [Selected novel flavones inhibit the DNA binding or the DNA religation step of cukaryotic topoisomerase I, F. Boege, T. Straub, A. Kehr, C. Boesenberg, K. Christiansen, A. Andersen, F. Jakob, J, Kohrle, J. Biol. Chem., 271, 2262, (1996)]; briefly, 10^6 HL-60 cells were cultivated for 1 h with and without drugs. Reactions were terminated by sedimentation of the cells (1000×g, 5 min, 4° C.) and subsequent lysis in PBS/NP40, RIPA buffer containing pepstatin and leupeptin. Samples were subjected to SDS-polyacrylamide (8%) gel electrophoresis and proteins that had entered the gel were electrophoretically transferred to nitro-cellulose sheets by the semi-dry method. Immunstaining of immobilised proteins was carried out using a polyclonal Ab of human topo I [topogen], and subsequently anti-human Ig biotinylated whole Ab (sheep)[Amersham], streptavidin horse-radish peroxidase and the ECL system [Amersham].

Compound: O=C1c2ccccc2C(=O)c2c1cccc2N1CCNCC1
- melting point: 190 °C

- melting point: 175 to 182 °C
Compound: Nc1ccc(Nc2cccc3c2C(=O)c2ccccc2C3=O)cc1

- melting point: 168 to 178 °C
Compound: CN(CCO)c1cccc2c1C(=O)c1c(cccc1N(C)CCO)C2=O

Compound: 1-(2-β-alanylpiperazinyl)anthracene-9,10-dione trifluoroacetate salt [Example 15]
- IC50 (MAC 15A cells): 20 µM
- QH50 (pBR322 DNA): 1.6 µM
- QE50 (pBR322 DNA): 11.4 µM

Compound: O=C(O)C(F)(F)F.O=C1c2ccccc2C(=O)c2c1cccc2N1CCNCC1 [Example 4b, 1-(1-piperazinyl)anthracene-9,10-dione trifluoroacetate salt]
- QH50 (pBR322 DNA): 1.7 µM
- QE50 (pBR322 DNA): 10.5 µM
- melting point: 170 °C

Compound: C[C@H](N)C(=O)N1CCN(c2cccc3c2C(=O)c2ccccc2C3=O)CC1.O=C(O)C(F)(F)F [Example 17, 1-(1-L-alanylpiperazinyl)anthracene-9,10-dione trifluoroacetate salt]
- IC50 (MAC 15A cells): 25 µM
- IC50 (HL-60 Human Leukemia): 10.7 µM
- DNA-topoisomerase activity: inhibition of topo I relaxation (topo I [1]; at 25 μM): COMPLETE inhibition at 25 μM
- nicked plasmid DNA (topo I mediated cleavage) (topo I [2]): 10% nicked plasmid DNA at 25 μM

Compound: N[C@@H](Cc1ccccc1)C(=O)N1CCN(c2cccc3c2C(=O)c2ccccc2C3=O)CC1.O=C(O)C(F)(F)F [Example 21, 1-(1-L-phenylalanylpiperazinyl)anthracene-9,10-dione trifluoroacetate salt]
- DNA-topoisomerase activity: inhibition of topo I relaxation (topo I [1]; at 10 μM): COMPLETE inhibition at 10 μM
- DNA-topoisomerase activity: topo I mediated cleavage (topo I [2]; between 10-100 μM): NO CLEAVAGE between 10-100 μM

Compound: N[C@@H](Cc1ccccc1)C(=O)NC1CCC(Nc2cccc3c2C(=O)c2ccccc2C3=O)CC1.O=C(O)C(F)(F)F (stereo partly drawn) [Example 26, (2S)-2-amino-N-{4-[(9,10-dioxoanthryl)amino]cyclohexyl}-3-phenylpropanamide trifluoroacetate salt]
- IC50 (MAC 15A cells): 3.5 µM
- QH50 (pBR322 DNA): 2.3 µM
- QE50 (pBR322 DNA): 6.5 µM
- DNA-topoisomerase activity: inhibition of topo I relaxation (topo I [1]; between 25-100 μM): NO inhibition between 25-100 μM
- nicked plasmid DNA (topo I mediated cleavage) (topo I [2]): 45% nicked plasmid DNA at 25 μM
- intensity of the (100 kDa) topo I band (topo I [3]; 1 h with drug, in comparison with camptothecin): Reductions in the intensity of the (100 kDa) topo I band were observed
- extent of immunoband depletion (topo I [3]; above 200 μM): comparable to the effect of camptothecin at 50 μM

Compound: O=C1c2c(O)ccc(O)c2C(=O)c2c(NCCNCCO)ccc(NCCNCCO)c21 [Mitoxantrone, reference compound]
- QH50 (pBR322 DNA): 1.0 µM
- QE50 (pBR322 DNA): 0.35 µM

Compound: (2R)-2-amino-N-{4-[(9,10-dioxoanthryl)amino]cyclohexyl}-3-phenylpropanamide trifluoroacetate salt [Example 28]
- IC50 (MAC 15A cells): 8 µM
- DNA-topoisomerase activity: inhibition of topo I relaxation (topo I [1]; at 50 μM): PARTIAL inhibition at 50 μM
- nicked plasmid DNA (topo I mediated cleavage) (topo I [2]): 20% nicked plasmid DNA at 25 μM

Source: US20030130272A1, “Anthracene derivatives as anti-cancer agents” (priority 1999, published 2003)
